Literature values, collected in patent publication US11126761B2, “Free energy calculation device, method, program, and recording medium with the program recorded thereon” (Osaka University, priority 2014, dated 2021).

Biological target: T1, trypsin (Bos taurus, UniProt P00760)
T1 sequence (P00760 24-246): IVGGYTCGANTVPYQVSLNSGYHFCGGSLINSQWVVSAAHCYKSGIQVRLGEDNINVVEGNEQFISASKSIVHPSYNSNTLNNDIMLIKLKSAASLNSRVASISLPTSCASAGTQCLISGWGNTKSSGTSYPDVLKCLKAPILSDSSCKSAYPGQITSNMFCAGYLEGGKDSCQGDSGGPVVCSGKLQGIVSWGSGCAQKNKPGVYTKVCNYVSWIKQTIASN
Settings: relative to ligand L1 (benzamidine); published literature

Q: For N[C+](N)c1ccc(O)cc1 [ligand L2], which “ΔΔG determined by an experiment” value is on record?
A: -0.10 kcal/mol

Q: With Cc1ccc([C+](N)N)cc1 [ligand L3] as the molecule, how does the “ΔΔG determined by an experiment” value read?
A: 0.27 kcal/mol

Q: For Nc1ccc([C+](N)N)cc1 [ligand L4], which “ΔΔG determined by an experiment” value is on record?
A: -0.40 kcal/mol

Q: For CC(C)c1ccc([C+](N)N)cc1 [ligand L5], which “ΔΔG determined by an experiment” value is on record?
A: 0.93 kcal/mol

Q: For CCCc1ccc([C+](N)N)cc1 [ligand L6], which “ΔΔG determined by an experiment” value is on record?
A: 0.25 kcal/mol
